The text below walks through data of patent publication US20250120971A1, “NOVEL DRUG TREATMENT OF COGNITIVE IMPAIRMENTS ASSOCIATED WITH SCHIZOPHRENIA” (FLORIDA ATLANTIC UNIVERSITY BOARD OF TRUSTEES, priority 2021, published 2025).

For assay [1], the system named is KET mouse model of psychosis. Briefly: Object recognition memory task after intrahippocampal (CA1) microinfusion. The following applies: KET mice; CyPPA 1 μg/μl bilateral intra-CA1 pre-sample; test 24 h later. Type of assay: in vivo.
The test system of assay [2] is rat model of repeated stress. The following applies: cited from earlier work.
The subject of assay [3] is KET mouse model of psychosis. Briefly: Trace fear conditioning and tone test. It counts as in vivo. The conditions noted are these: for discrimination ratio of % freezing (trace vs CS intervals) (Mdn): CyPPA 15.0 mg/kg IP 30 min before trace fear conditioning. The procedure:
Systemic Administration of the SK2 Activator. Two groups of KET mice and two groups of SAL mice were randomly assigned to receive either VEH or CyPPA (15.0 mg/kg) IP 30 min prior to a trace fear conditioning session.
Trace fear conditioning was performed using a MED Associates Near-Infrared Video Fear Conditioning System (Georgia, VT) composed of four identical rectangular conditioning chambers (30.5 cm by 24.1 cm by 21 cm) constructed of brushed aluminum side walls and clear Plexiglas front, back and top walls. Each chamber was illuminated by an overhead white house light and an infrared light. An audio speaker attached to the right-side wall of each chamber delivered the tone stimuli. The chamber floor was constructed of parallel stainless-steel rods (36 rods, 3.2 mm dia, 7.9 mm apart) designed for mice, and connected to a scrambled shock generator. Each conditioning chamber was housed inside a larger sound-attenuating cabinet with a ventilation fan in the right-side wall used to provide background noise. A near-infrared FireWire video camera, mounted on the left front door of each noise-attenuating cabinet, was used to acquire mouse behavior. Before each trial, the chamber floors were cleaned thoroughly with a 70% ethanol solution, then with 1% LiquiNox (White Plains, New York) to reduce olfactory cues.
Freezing responses were recorded and automatically scored during the conditioning session to assess the strength of fear memory. The automatic software program operationally defined freezing as the duration of time, greater than 0.6 s, during which fewer than 20 pixels of each video frame were detected to have changed. […] All final freezing responses were hand scored to ensure accuracy.
Trace Fear Conditioning Session. Mice received a systemic injection of CyPPA or VEH and then were placed individually into empty holding cages. Thirty min later, mice were placed individually into a distinct conditioning chamber with an odor cue. […] (FIG. 4A). Mice were removed from the chamber 60 s. after the presentation of the 8th US.
Trace Fear Memory Tone Test. To assess retention of trace fear memory after a 24-hour delay, mice received a mock IP injection before being placed in the polycarbonate cage. After 30 min, mice were placed into modified conditioning chambers and after a 60 s. delay, were presented with the identical tone CS as in the conditioning session. […] Mice were removed 30 s. after termination of the last CS. The context of chamber was modified before the tone test by installing an inverted V-shaped Plexiglas insert to change the geometry of the side walls and ceiling, a floor shield, 1% acetic acid, and lighting filter.
Statistical Analysis. […] To examine whether KET differentially influenced the perception of the aversive foot shock stimulus, an activity burst ratio was computed for each mouse by dividing the motion score for the first shock interval, 1 s, +1 s. post shock by the motion score for a 2-s interval from the initial 60 s. of the conditioning session (Mean shock/mean no shock). A two-factor (group, treatment) ANOVA, or one-way if not normally distributed, was conducted to analyze treatment differences in the mean activity burst.
Trace fear conditioning involves the imposition of a temporal gap between the termination of the CS and the onset of the aversive US stimulus. […] The strength and accuracy of this temporally guided fear memory can then be assessed during a test session, often presented 24 hours after trace conditioning. […]

Assay [4] relates to KET mouse model of psychosis or schizophrenia-like behavior. Kind of assay: Object recognition memory task after systemic (IP) SK channel activator. Type of assay: in vivo, mouse (male C57BL/6J). The conditions noted are these: for discrimination ratio score, test session (Mdn): CyPPA 15.0 mg/kg IP 30 min pre-sample. How it is done:
SK Drug Administration. To test the effect of the SK2 specific activator, CyPPA on long-term memory for objects, two KET groups and two SAL groups of male C57BL/6J mice were randomly assigned to receive either VEH or CyPPA (15.0 mg/kg) IP 30 min prior to the sample session of an object recognition memory task. Separate groups received CyPPA (7.5 mg/kg) IP or VEH 30 min prior to the sample session.
Arena Habituation. Mice were habituated to the arena prior to testing recognition memory. Thirty minutes prior to each arena habituation (AH) session, each mouse was restrained gently and momentarily, given a mock IP injection with a 26-gauge needle, and then placed into an empty polycarbonate cage. […] Afterwards, each mouse was returned to the polycarbonate cage and then returned to its home cage. Activity was recorded and automatically scored using Noldus Ethovision XT (version 7.0). Distance traveled was defined as the sum of recorded movement of the center point of the mouse in cm over the duration of the trial. Movement data from the AH sessions was used to match future treatment groups.
Sample Session. To examine the efficacy of activating SK channels on hippocampal long-term memory in the KET model of schizophrenia or psychosis-like cognitive deficits, an SK channel activator or vehicle (VEH, i.e., placebo) was administered to cohorts of saline (SAL) control mice or ketamine (KET)-exposed mice prior to the sample session of an object recognition task. Ten days after the final SAL or KET injection, mice received an IP injection of a SK channel activator or VEH, and then were placed individually in polycarbonate holding cages. Following a delay, the mouse was placed individually into the familiar arena for 10 min. Mice were permitted to freely explore two identical novel objects that were placed in opposite corners within the arena. […] The arena and objects were wiped down with 70% ethanol before each session to eliminate any odor cues that were present. Object exploration was defined as time (in s) that the mouse spent with its head oriented toward and within 2-3 cm of the object. The sample session ended after 10 min; at which time the mouse was returned to its home cage. Sample session behavior was video tracked via Ethovision XT and recordings were analyzed off-line to determine object exploration times for each mouse.
Test Session. Twenty-four hours following the sample session, mice were placed in a polycarbonate cage and then given a 10-min test session in the same arena as the sample session. Each mouse received a needle prick to simulate an IP injection before being placed in the polycarbonate holding cage for 30 min. For the test session, one of the previously encountered objects was replaced with a novel one (e.g., A, B, or C), as described above. To avoid place preference confounding behavioral responses, the objects were randomly replaced for the test session. The arena and objects were wiped down with 70% ethanol before each session to eliminate any odor cues that might affect behavioral responses during the test session.
Statistical Analysis. Object exploration was determined for each mouse based on the manual scoring of behavior from the recorded video files of the sample and test sessions. Scoring was done by experimenters who were blind to the treatment and group of the mice. Object memory was inferred from discrimination ratio scores, calculated for each mouse as the difference in time spent exploring the novel object minus the time spent exploring the familiar object, divided by the total time spent exploring both test objects (TNovel object−TFamiliar object/TNovel object+TFamiliar object). Discrimination ratio scores range from 1 to −1, with ratios greater than zero indicating preferential exploration of the novel object, and ratios less than zero indicating preferential exploration of the familiar object.

Molecules are shown by their SMILES. “Also recorded” adds a separate entry of the source.

As to `Cc1cc(NC2CCCCC2)nc(-n2nc(C)cc2C)n1` [CyPPA], in assay [1], the “discrimination ratio score, test session (M)” value is given as 0.354. In addition, the “discrimination ratio, test session (Mdn)” value in assay [1] came to 0.398; in assay [4] (KET mice, CyPPA 7.5 mg/kg IP 30 min pre-sample, test 24 h later), 0.079. Also, the “object recognition memory vs KET/VEH” value in assay [1] was “improved object recognition memory; also recorded: partial, albeit significant, rescue of object recognition memory”. In assay [2], the “fear memory impairments” value was “alleviated fear memory impairments”. Further, in assay [3] (KET mice given CyPPA vs KET mice given VEH), the “performance during the tone test (retrieval) as stated in the Conclusions” value is “performed equivalently to KET mice given VEH”. The “discrimination ratio of % freezing (trace vs CS intervals) (Mdn)” value in assay [3] (KET mice) turned out to be 0.21; in assay [3] (SAL mice) it was 0.13. In addition, the “temporal memory / attention in trace fear conditioning vs KET mice given VEH” value in assay [3] (KET mice, CyPPA 15.0 mg/kg IP 30 min pre-conditioning) was “rescue of the attention or learning deficit; also recorded: significantly better than that of VEH-treated KET mice; also recorded: rescued temporal memory and attention”. Further, the “conditioned freezing response vs SAL mice given VEH” value in assay [3] (SAL mice, CyPPA 15.0 mg/kg IP pre-conditioning) is listed as “impaired acquisition of the conditioned freezing response; also recorded: exhibited impaired freezing compared to SAL mice given VEH”. The “object recognition memory vs KET mice given VEH” value in assay [4] (KET mice, CyPPA 7.5 mg/kg IP pre-sample, test 24 h later) is listed as “no rescue of KET-induced impaired object memory”; in assay [4] (KET mice, CyPPA 15.0 mg/kg IP pre-sample, test 24 h later) it was “rescued object recognition memory; also recorded: performed significantly better than VEH-treated KET mice; also recorded: significantly better object recognition memory performance”. Also, the “discrimination ratio score, test session (Mdn)” value in assay [4] (KET mice, test 24 h later) is on record as 0.191; in assay [4] (SAL control mice, test 24 h later), 0.381. Also, in assay [4] (SAL control mice, CyPPA 15.0 mg/kg IP pre-sample), the “object memory vs SAL mice given VEH” value was “impaired object memory; also recorded: impaired the encoding and or consolidation of object memory”.
Turning to `CCn1c(=O)[nH]c2ccccc21` [1-EBIO], the “fear memory impairments” value in assay [2] is “alleviated fear memory impairments”.
